Experimental data reported in patent US20080113938A1, “ACCELERATOR FOR MINERAL ABSORPTION AND USE THEREOF” (KABUSHIKI KAISHA HAYASHIBARA SEIBUTSU KAGAKU KENKYUJO, priority 2003, published 2008).
Marks after values point to notes of the source that are not given here.

Test system: absorption of calcium, magnesium, phosphorus and iron in alimentary canal
Experiment: Mineral amounts and absorption percentages in alimentary canal contents and excrement of rats
Assay type: in vivo, Wister rats
From the text: Forty of Wister rats weighing 110 to 120 g (five-weeks aged male, commercialized by Charles River Japan Inc., Yokohama, Japan) were bred with a feed containing ingredients (%) shown in Table 1 for one week in order to be familiarized. The familiarized rats were randomly divided into four groups with ten rats each. Each group was experimentally bred for eight weeks with either a feed without cyclic tetrasaccharide shown in Table 1 (hereinafter, it is called as “basic feed”), or another feed of basic feed supplemented with 1%, 2% or 5% on a dry solid basis, of cyclic tetrasaccharide in a crystalline anhydrous powder form with a purity of 99.5%, prepared in the following Example A-3. These basic feed and three kinds of feeds with cyclic tetrasaccharide were prepared to contain 44.75% of the total amount of cyclic tetrasaccharide and corn starch in each feed. From one week before the end of the breeding test, in order to determine the metabolism of calcium, magnesium, iron, sodium, potassium and phosphorus (hereinafter, may be called “minerals” in all), rats in the all groups were fed with the four types of feeds supplemented with 0.5% of chromium oxide as a non-absorbed marker for the minerals. The rats were bred at 25° C. in a manner of freely allowing to take feeds and water under a condition of 12 hours regular interval between of light and shade. After completion of experimental breeding, all rats were individually weighed to calculate the average of weight and further calculate the rate of increased weight for each group.
Two days before the end of the breeding test, rats were placed into a gauge for measuring metabolism to collect their excrement in two days. The resulting excrement was subjected to the measurement of the contents of cyclic tetrasaccharide, each mineral, and chromium. After the breeding test, the rats were anatomized in an anesthetized condition to take out their alimentary canals including jejunum, intestinum ileum, appendix and colon/rectum. After the resulting alimentary canals were weighed, their contents were also weighed and subjected to the measurement of the amount of cyclic tetrasaccharide, minerals and chromium. The rats, which had been taken out their alimentary canals, were dislocated at their cervical vertebrae and taken out their femurs from right legs. The resulting femurs were subjected to the measurement of the amount of ashes, calcium, magnesium and phosphorus. The following(s) explain the methods of quantitative analysis of cyclic tetrasaccharide and the methods of measurement of minerals and chromium.
Two grams of a feed was preciously weighed in a porcelain crucible, heated to carbonize, and heated at 600° C. to incinerate. After weighed, the resulting test samples were admixed with hydrochloric acid in a precious analysis grade (concentration of 20%, commercialized by Wako Pure Chemicals, Co., Ltd., Osaka, Japan) to give a final concentration of 1%. They were subjected to atomic absorption spectrometry (“Zeeman5100™”, commercialized by PerkinElmer); in the case of measurement of chromium, they were subjected to a flameless type one. In the case of measurement of phosphorus, they were subjected to usual molybdenum blue absorptiometry. On the other hand, 0.1 g of each of the contents of jejunum, intestinum ileum, appendix, colon/rectum, and excrement was subjected to wet-type incineration to prepare test samples similarly as in the above case of feed, and the test samples were quantified. The right femurs taken out from the anatomized rats were dried at 105° C. for 15 hours and measured as a dry weight. The resulting dried femurs were precisely weighed in a porcelain crucible, and incinerated similarly as in the case of the feed. The resultants were weighed and quantified for calcium, magnesium and phosphorus.

[1] = feed supplemented with 1% cyclic tetrasaccharide
[2] = feed supplemented with 2% cyclic tetrasaccharide
[3] = feed supplemented with 5% cyclic tetrasaccharide

Compound: OC[C@H]1O[C@@H]2OC[C@H]3O[C@H](O[C@@H]4[C@@H](O)[C@@H](OC[C@H]5O[C@H](O[C@H]([C@H]2O)[C@@H]1O)[C@H](O)[C@@H](O)[C@@H]5O)O[C@H](CO)[C@H]4O)[C@H](O)[C@@H](O)[C@@H]3O [cyclic tetrasaccharide, cyclo{>6)-α-D-glucopyranosyl-(1>3)-α-D-glucopyranosyl-(1>6)-α-D-glucopyranosyl-(1>3)-α-D-glucopyranosyl-(1>}]
- absorption rates of calcium, magnesium, phosphorus and iron in intestinum ileum and lower alimentary canal (against basic feed, 1%, 2%, 5% feeds): significantly increased in a dose-dependent manner
- Absorption percentage of calcium, appendix [1]: (83) %
- Absorption percentage of calcium, colon/rectum [1]: (86) %
- Absorption percentage of calcium, excrement [1]: (88) %
- Absorption percentage of calcium, intestinum ileum [1]: (79) %
- Absorption percentage of iron, appendix [1]: (74) %
- Absorption percentage of iron, colon/rectum [1]: (80) %
- Absorption percentage of iron, excrement [1]: (85) %
- Absorption percentage of iron, intestinum ileum [1]: (67) %
- Absorption percentage of magnesium, appendix [1]: (84) %
- Absorption percentage of magnesium, colon/rectum [1]: (86) %
- Absorption percentage of magnesium, excrement [1]: (88) %
- Absorption percentage of magnesium, intestinum ileum [1]: (80) %
- Absorption percentage of phosphorus, appendix [1]: (88) %
- Absorption percentage of phosphorus, colon/rectum [1]: (92) %
- Absorption percentage of phosphorus, excrement [1]: (95) %
- Absorption percentage of phosphorus, intestinum ileum [1]: (84) %
- Amount of Phosphorus, content of appendix [1]: 5.39 * mg/g
- Amount of Phosphorus, content of colon/rectum [1]: 5.18 * mg/g
- Amount of Phosphorus, content of intestinum ileum [1]: 3.45 * mg/g
- Amount of Phosphorus, excrement [1]: 17.74 * mg/g
- Amount of calcium, content of appendix [1]: 10.56 * mg/g
- Amount of calcium, content of colon/rectum [1]: 9.83 * mg/g
- Amount of calcium, content of intestinum ileum [1]: 6.02 * mg/g
- Amount of calcium, excrement [1]: 54.29 * mg/g
- Amount of iron, content of appendix [1]: 0.16 * mg/g
- Amount of iron, content of colon/rectum [1]: 0.14 * mg/g
- Amount of iron, content of intestinum ileum [1]: 0.10 * mg/g
- Amount of iron, excrement [1]: 0.71 * mg/g
- Amount of magnesium, content of appendix [1]: 2.24 * mg/g
- Amount of magnesium, content of colon/rectum [1]: 2.17 * mg/g
- Amount of magnesium, content of intestinum ileum [1]: 1.30 * mg/g
- Amount of magnesium, excrement [1]: 12.06 * mg/g
- Absorption percentage of calcium, appendix [2]: (88) %
- Absorption percentage of calcium, colon/rectum [2]: (90) %
- Absorption percentage of calcium, excrement [2]: (92) %
- Absorption percentage of calcium, intestinum ileum [2]: (84) %
- Absorption percentage of iron, appendix [2]: (77) %
- Absorption percentage of iron, colon/rectum [2]: (83) %
- Absorption percentage of iron, excrement [2]: (88) %
- Absorption percentage of iron, intestinum ileum [2]: (67) %
- Absorption percentage of magnesium, appendix [2]: (86) %
- Absorption percentage of magnesium, colon/rectum [2]: (88) %
- Absorption percentage of magnesium, excrement [2]: (90) %
- Absorption percentage of magnesium, intestinum ileum [2]: (80) %
- Absorption percentage of phosphorus, appendix [2]: (92) %
- Absorption percentage of phosphorus, colon/rectum [2]: (94) %
- Absorption percentage of phosphorus, excrement [2]: (97) %
- Absorption percentage of phosphorus, intestinum ileum [2]: (87) %
- Amount of Phosphorus, content of appendix [2]: 5.35 * mg/g
- Amount of Phosphorus, content of colon/rectum [2]: 4.10 * mg/g
- Amount of Phosphorus, content of intestinum ileum [2]: 4.17 * mg/g
- Amount of Phosphorus, excrement [2]: 10.27 * mg/g
- Amount of calcium, content of appendix [2]: 8.98 * mg/g
- Amount of calcium, content of colon/rectum [2]: 7.45 * mg/g
- Amount of calcium, content of intestinum ileum [2]: 5.61 * mg/g
- Amount of calcium, excrement [2]: 28.62 * mg/g
- Amount of iron, content of appendix [2]: 0.18 * mg/g
- Amount of iron, content of colon/rectum [2]: 0.14 * mg/g
- Amount of iron, content of intestinum ileum [2]: 0.12 * mg/g
- Amount of iron, excrement [2]: 0.49 * mg/g
- Amount of magnesium, content of appendix [2]: 2.40 * mg/g
- Amount of magnesium, content of colon/rectum [2]: 2.09 * mg/g
- Amount of magnesium, content of intestinum ileum [2]: 1.61 * mg/g
- Amount of magnesium, excrement [2]: 9.21 * mg/g
- Absorption percentage of calcium, appendix [3]: (93) %
- Absorption percentage of calcium, colon/rectum [3]: (94) %
- Absorption percentage of calcium, excrement [3]: (94) %
- Absorption percentage of calcium, intestinum ileum [3]: (89) %
- Absorption percentage of iron, appendix [3]: (78) %
- Absorption percentage of iron, colon/rectum [3]: (84) %
- Absorption percentage of iron, excrement [3]: (89) %
- Absorption percentage of iron, intestinum ileum [3]: (69) %
- Absorption percentage of magnesium, appendix [3]: (88) %
- Absorption percentage of magnesium, colon/rectum [3]: (91) %
- Absorption percentage of magnesium, excrement [3]: (93) %
- Absorption percentage of magnesium, intestinum ileum [3]: (84) %
- Absorption percentage of phosphorus, appendix [3]: (93) %
- Absorption percentage of phosphorus, colon/rectum [3]: (94) %
- Absorption percentage of phosphorus, excrement [3]: (97) %
- Absorption percentage of phosphorus, intestinum ileum [3]: (87) %
- Amount of Phosphorus, content of appendix [3]: 3.43 * mg/g
- Amount of Phosphorus, content of colon/rectum [3]: 3.06 * mg/g
- Amount of Phosphorus, content of intestinum ileum [3]: 2.84 * mg/g
- Amount of Phosphorus, excrement [3]: 8.98 * mg/g
- Amount of calcium, content of appendix [3]: 4.99 * mg/g
- Amount of calcium, content of colon/rectum [3]: 5.00 * mg/g
- Amount of calcium, content of intestinum ileum [3]: 3.48 * mg/g
- Amount of calcium, excrement [3]: 26.47 * mg/g
- Amount of iron, content of appendix [3]: 0.19 * mg/g
- Amount of iron, content of colon/rectum [3]: 0.13 * mg/g
- Amount of iron, content of intestinum ileum [3]: 0.10 * mg/g
- Amount of iron, excrement [3]: 0.66 * mg/g
- Amount of magnesium, content of appendix [3]: 2.03 * mg/g
- Amount of magnesium, content of colon/rectum [3]: 1.55 * mg/g
- Amount of magnesium, content of intestinum ileum [3]: 1.04 * mg/g
- Amount of magnesium, excrement [3]: 8.37 * mg/g
